Results published in patent US11512079B2, “Heterocycle substituted pyridine derivative antifungal agents” (Amplyx Pharmaceuticals, Inc., priority 2017, dated 2022).
Values after ≈ are worked out from the molar mass of the structure shown.

Experiments:
Type in all cases: cell-based
[1] = tested on: Cryptococcus neoformans H99; assay: In vitro antifungal assay (Example IX), microdilution broth, MIC; conditions: minimum inhibitory concentration (≥50% inhibition), 35° C., 72 h, RPMI1640
How it was run: (§1)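 CLSI broth microdilution in RPMI1640 with 2.5×10^3 cells/mL and final compound concentrations of 2-0.0019 μg/mL (1% DMSO). C. albicans 90028 plates were incubated at 35° C. for 40-48 h and C. neoformans H99 for 72 h. MIC was read as minimum inhibitory concentration, verified at 600 nm.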

Candida albicans 90028 = assay: as above; conditions: minimum inhibitory concentration (≥50% inhibition), 35° C., 40-48 h, RPMI1640
How it was run: as §1

[2] = tested on: Aspergillus fumigatus MYA3626; assay: In vitro antifungal assay (Example IX), microdilution broth, MEC; conditions: minimum effective concentration (shortening of hyphae), 35° C., 40-48 h, RPMI1640
How it was run: (§2)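 Spore suspensions of A. fumigatus and R. pusillus adjusted to 1-2×10^4 spores/mL in RPMI1640 and exposed to compound dilutions prepared in DMSO, by broth microdilution. MEC taken as the lowest concentration shortening hyphae versus DMSO control wells, read as for echinocandins.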

[3] = tested on: Rhizomucor pusillus 46342; assay: as above; conditions: minimum effective concentration (shortening of hyphae), 35° C., 40-48 h, RPMI1640
How it was run: as §2

Cryptococcus gattii = assay: In vitro antifungal assay (Example IX), microdilution broth, MIC; conditions: minimum inhibitory concentration (≥50% inhibition), 35° C., 72 h (Cryptococcus), RPMI1640
How it was run: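 Broth microdilution in RPMI1640 with 2.5×10^3 cells/mL inoculum; final compound concentrations were 2–0.0019 μg/mL, with 1% DMSO. Cryptococcus plates were incubated at 35 °C for 72 h, and growth was read at 600 nm to give the MIC.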

SMILES | MIC [1] | MIC (Candida albicans 90028) | MIC (Cryptococcus gattii) | minimal effective concentration [2] | minimal effective concentration [3]
Nc1ncccc1-c1cc(Cc2ccc(Cn3cncn3)cc2)no1 [compound 199, 3-(3-(4-((1H-1,2,4-triazol-1-yl)methyl)benzyl)isoxazol-5-yl)pyridin-2-amine] | > 1 µg/mL | > 1 µg/mL | > 1 µg/mL | > 1 µg/mL | > 1 µg/mL
Nc1ncccc1-c1cc(Cc2ccc(/C=C/C3CCCCC3)cc2)no1 [compound 99, (E)-3-(3-(4-(2-cyclohexylvinyl)benzyl)isoxazol-5-yl)pyridin-2-amine] | 0.1 to 1 µg/mL (≈ 0.278 to 2.78 µM) | > 1 µg/mL | 0.1 to 1 µg/mL (≈ 0.278 to 2.78 µM) | 0.1 to 1 µg/mL | > 1 µg/mL
Nc1ccc(-c2cc(Cc3ccc(CNc4ccccc4)cc3)no2)c(N)n1 [compound 136, 3-(3-(4-((phenylamino)methyl)benzyl)isoxazol-5-yl)pyridine-2,6-diamine] | 0.1 to 1 µg/mL (≈ 0.269 to 2.69 µM) | 0.1 to 1 µg/mL (≈ 0.269 to 2.69 µM) | 0.1 to 1 µg/mL (≈ 0.269 to 2.69 µM) | 0.01 to 0.1 µg/mL | 0.01 to 0.1 µg/mL
Nc1ncccc1-c1cc(Cc2ccc(COC3CCCCC3)cc2)no1 [compound 23, 3-(3-(4-((cyclohexyloxy)methyl)benzyl)isoxazol-5-yl)pyridin-2-amine] | 0.1 to 1 µg/mL (≈ 0.275 to 2.75 µM) | 0.1 to 1 µg/mL (≈ 0.275 to 2.75 µM) | 0.01 to 0.1 µg/mL (≈ 0.0275 to 0.275 µM) | 0.1 to 1 µg/mL | 0.1 to 1 µg/mL
Nc1ncccc1-c1cc(Cc2ccc(CNc3cccc(F)c3F)cc2)no1 [compound 108, 3-(3-(4-(((2,3-difluorophenyl)amino)methyl)benzyl)isoxazol-5-yl)pyridin-2-amine] | 0.1 to 1 µg/mL (≈ 0.255 to 2.55 µM) | 0.01 to 0.1 µg/mL (≈ 0.0255 to 0.255 µM) | 0.1 to 1 µg/mL (≈ 0.255 to 2.55 µM) | 0.01 to 0.1 µg/mL | 0.1 to 1 µg/mL
Nc1ncccc1-c1cc(Cc2ccc(OCc3cnc4ccccc4n3)cc2)no1 [compound 30, 3-(3-(4-(quinoxalin-2-ylmethoxy)benzyl)isoxazol-5-yl)pyridin-2-amine] | > 1 µg/mL | 0.1 to 1 µg/mL (≈ 0.244 to 2.44 µM) | > 1 µg/mL | > 1 µg/mL | 0.1 to 1 µg/mL
Cc1cc(COc2ccc(Cc3cc(-c4cccnc4N)on3)cn2)no1 [compound 38, 3-(3-((6-((5-methylisoxazol-3-yl)methoxy)pyridin-3-yl)methyl)isoxazol-5-yl)pyridin-2-amine] | 0.1 to 1 µg/mL (≈ 0.275 to 2.75 µM) | 0.1 to 1 µg/mL (≈ 0.275 to 2.75 µM) | 0.1 to 1 µg/mL (≈ 0.275 to 2.75 µM) | 0.01 to 0.1 µg/mL | 0.1 to 1 µg/mL
Nc1ncccc1-c1cc(Cc2ccc(OCCCc3ccccc3)nc2)no1 [compound 213, 3-(3-((6-(3-phenylpropoxy)pyridin-3-yl)methyl)isoxazol-5-yl)pyridin-2-amine] | 0.1 to 1 µg/mL (≈ 0.259 to 2.59 µM) | 0.1 to 1 µg/mL (≈ 0.259 to 2.59 µM) | 0.1 to 1 µg/mL (≈ 0.259 to 2.59 µM) | 0.1 to 1 µg/mL | > 1 µg/mL
Nc1ncccc1-c1cc(Cc2ccc(OCc3cncc(F)c3)cc2)no1 [compound 115, 3-(3-(4-((5-fluoropyridin-3-yl)methoxy)benzyl)isoxazol-5-yl)pyridin-2-amine] | 0.1 to 1 µg/mL (≈ 0.266 to 2.66 µM) | 0.1 to 1 µg/mL (≈ 0.266 to 2.66 µM) | 0.1 to 1 µg/mL (≈ 0.266 to 2.66 µM) | 0.01 to 0.1 µg/mL | > 1 µg/mL
Nc1ncccc1-c1cc(Cc2ccc(Cn3cnnc3)cc2)no1 [compound 200, 3-(3-(4-((4H-1,2,4-triazol-4-yl)methyl)benzyl)isoxazol-5-yl)pyridin-2-amine] | > 1 µg/mL | > 1 µg/mL | > 1 µg/mL | > 1 µg/mL | > 1 µg/mL
Nc1ncccc1-c1cc(Cc2ccc(C(=O)c3ccccc3)cc2)no1 [compound 191, (4-((5-(2-aminopyridin-3-yl)isoxazol-3-yl)methyl)phenyl)(phenyl)methanone] | 0.1 to 1 µg/mL (≈ 0.281 to 2.81 µM) | 0.1 to 1 µg/mL (≈ 0.281 to 2.81 µM) | 0.1 to 1 µg/mL (≈ 0.281 to 2.81 µM) | 0.01 to 0.1 µg/mL | 0.1 to 1 µg/mL
c1ccc(COc2ccc(Cn3cc(-c4cccnc4)cn3)cn2)cc1 [compound 65, 2-(benzyloxy)-5-((4-(pyridin-3-yl)-1H-pyrazol-1-yl)methyl)pyridine] | 0.1 to 1 µg/mL (≈ 0.292 to 2.92 µM) | 0.1 to 1 µg/mL (≈ 0.292 to 2.92 µM) | 0.1 to 1 µg/mL (≈ 0.292 to 2.92 µM) | 0.01 to 0.1 µg/mL | > 1 µg/mL
Nc1ncccc1-c1cc(Cc2ccc(OCCn3cncn3)nc2)no1 [compound 202, 3-(3-((6-(2-(1H-1,2,4-triazol-1-yl)ethoxy)pyridin-3-yl)methyl)isoxazol-5-yl)pyridin-2-amine] | > 1 µg/mL | > 1 µg/mL | > 1 µg/mL | > 1 µg/mL | > 1 µg/mL
CC(C)(O)c1cccc(Cc2ccc(Cc3cc(-c4cccnc4N)on3)cc2)c1 [compound 209, 2-(3-(4-((5-(2-aminopyridin-3-yl)isoxazol-3-yl)methyl)benzyl)phenyl)propan-2-ol] | > 1 µg/mL | > 1 µg/mL | > 1 µg/mL | > 1 µg/mL | > 1 µg/mL

Second part, led by results:

MIC [1] | MIC (Candida albicans 90028) | MIC (Cryptococcus gattii) | SMILES | minimal effective concentration [2] | minimal effective concentration [3]
0.01 to 0.1 µg/mL (≈ 0.0277 to 0.277 µM) | 0.01 to 0.1 µg/mL (≈ 0.0277 to 0.277 µM) | 0.01 to 0.1 µg/mL (≈ 0.0277 to 0.277 µM) | Nc1ncccc1-c1cc(Cc2ccc(Nc3ccccc3F)nc2)no1 [compound 60, 5-((5-(2-aminopyridin-3-yl)isoxazol-3-yl)methyl)-N-(2-fluorophenyl)pyridin-2-amine] | 0.1 to 1 µg/mL | > 1 µg/mL
0.01 to 0.1 µg/mL (≈ 0.0292 to 0.292 µM) | 0.01 to 0.1 µg/mL (≈ 0.0292 to 0.292 µM) | 0.01 to 0.1 µg/mL (≈ 0.0292 to 0.292 µM) | Nc1ncccc1-c1cc(Cc2ccc(Nc3ccccc3)cc2)no1 [Example 144, 3-(3-(4-(phenylamino)benzyl)isoxazol-5-yl)pyridin-2-amine] | 0.01 to 0.1 µg/mL | 0.1 to 1 µg/mL
0.01 to 0.1 µg/mL (≈ 0.0251 to 0.251 µM) | 0.1 to 1 µg/mL (≈ 0.251 to 2.51 µM) | 0.1 to 1 µg/mL (≈ 0.251 to 2.51 µM) | Nc1ncccc1-c1cc(Cc2ccc(OCc3ccc(Cl)s3)nc2)no1 [compound 221, 3-(3-((6-((5-chlorothiophen-2-yl)methoxy)pyridin-3-yl)methyl)isoxazol-5-yl)pyridin-2-amine] | 0.01 to 0.1 µg/mL | 0.1 to 1 µg/mL
0.01 to 0.1 µg/mL (≈ 0.0302 to 0.302 µM) | 0.01 to 0.1 µg/mL (≈ 0.0302 to 0.302 µM) | 0.01 to 0.1 µg/mL (≈ 0.0302 to 0.302 µM) | Nc1ncccc1-c1cc(Cc2ccc(CC3=CCCC3)cc2)no1 [compound 17, 3-(3-(4-(cyclopent-1-en-1-ylmethyl)benzyl)isoxazol-5-yl)pyridin-2-amine] | 0.01 to 0.1 µg/mL | 0.1 to 1 µg/mL
0.01 to 0.1 µg/mL (≈ 0.0252 to 0.252 µM) | 0.1 to 1 µg/mL (≈ 0.252 to 2.52 µM) | 0.01 to 0.1 µg/mL (≈ 0.0252 to 0.252 µM) | [N-]=[N+]=Nc1cccc(NCc2ccc(Cc3cc(-c4cccnc4N)on3)cc2)c1 [compound 231, 3-(3-(4-(((3-azidophenyl)amino)methyl)benzyl)isoxazol-5-yl)pyridin-2-amine] | 0.01 to 0.1 µg/mL | 0.1 to 1 µg/mL
0.01 to 0.1 µg/mL (≈ 0.0264 to 0.264 µM) | 0.1 to 1 µg/mL (≈ 0.264 to 2.64 µM) | 0.01 to 0.1 µg/mL (≈ 0.0264 to 0.264 µM) | Nc1ncccc1-c1cc(Cc2ccc(Cc3ccnc(F)c3F)cc2)no1 [compound 20, 3-(3-(4-((2,3-difluoropyridin-4-yl)methyl)benzyl)isoxazol-5-yl)pyridin-2-amine] | 0.01 to 0.1 µg/mL | 0.1 to 1 µg/mL
0.01 to 0.1 µg/mL (≈ 0.029 to 0.29 µM) | 0.1 to 1 µg/mL (≈ 0.29 to 2.9 µM) | ≤ 0.01 µg/mL | Nc1ncccc1-c1cc(Cc2ccc(Oc3ccccc3)nc2)no1 [Example 143, 3-(3-((6-phenoxypyridin-3-yl)methyl)isoxazol-5-yl)pyridin-2-amine] | 0.01 to 0.1 µg/mL | 0.1 to 1 µg/mL
0.01 to 0.1 µg/mL (≈ 0.0265 to 0.265 µM) | 0.01 to 0.1 µg/mL (≈ 0.0265 to 0.265 µM) | 0.01 to 0.1 µg/mL (≈ 0.0265 to 0.265 µM) | Nc1ncccc1-c1cc(Cc2ccc(OCc3ccnc(F)c3)nc2)no1 [Example 154, 3-(3-((6-((2-fluoropyridin-4-yl)methoxy)pyridin-3-yl)methyl)isoxazol-5-yl)pyridin-2-amine] | 0.01 to 0.1 µg/mL | 0.1 to 1 µg/mL
0.01 to 0.1 µg/mL (≈ 0.029 to 0.29 µM) | ≤ 0.01 µg/mL | 0.01 to 0.1 µg/mL (≈ 0.029 to 0.29 µM) | Cc1ccc(Cc2ccc(Cc3cc(-c4cccnc4N)on3)cc2)o1 [compound 122, 3-(3-(4-((5-methylfuran-2-yl)methyl)benzyl)isoxazol-5-yl)pyridin-2-amine] | ≤ 0.01 µg/mL | 0.01 to 0.1 µg/mL
0.01 to 0.1 µg/mL (≈ 0.0266 to 0.266 µM) | 0.01 to 0.1 µg/mL (≈ 0.0266 to 0.266 µM) | 0.01 to 0.1 µg/mL (≈ 0.0266 to 0.266 µM) | Nc1ncccc1-c1cc(Cc2ccc(NCc3ccccc3F)nc2)no1 [compound 74, 5-((5-(2-aminopyridin-3-yl)isoxazol-3-yl)methyl)-N-(2-fluorobenzyl)pyridin-2-amine] | 0.1 to 1 µg/mL | > 1 µg/mL
0.01 to 0.1 µg/mL (≈ 0.0274 to 0.274 µM) | 0.1 to 1 µg/mL (≈ 0.274 to 2.74 µM) | 0.01 to 0.1 µg/mL (≈ 0.0274 to 0.274 µM) | Nc1ncccc1-c1cc(Cc2ccc(OCc3cccs3)nc2)no1 [compound 40, 3-(3-((6-(thiophen-2-ylmethoxy)pyridin-3-yl)methyl)isoxazol-5-yl)pyridin-2-amine] | 0.01 to 0.1 µg/mL | 0.1 to 1 µg/mL
0.01 to 0.1 µg/mL (≈ 0.0257 to 0.257 µM) | 0.1 to 1 µg/mL (≈ 0.257 to 2.57 µM) | 0.01 to 0.1 µg/mL (≈ 0.0257 to 0.257 µM) | COc1cc(COc2ccc(Cc3cc(-c4cccnc4N)on3)cn2)ccn1 [Example 165, 3-(3-((6-((2-methoxypyridin-4-yl)methoxy)pyridin-3-yl)methyl)isoxazol-5-yl)pyridin-2-amine] | 0.01 to 0.1 µg/mL | 0.1 to 1 µg/mL
